The values that follow come from patent US20090255006A1, “Transgenic Zebrafish” (University of Georgia Research Foundation, Inc., priority 2008, published 2009).

Data set [1] concerns Nodal receptors. Particulars: cited from earlier work.
In data set [2] the test system is Nodal receptors. Description: Block of Nodal signaling with SB-505124 in Tg-SqtapGFPi embryos, gfp in situ hybridization. The format is in vivo, zebrafish. Particulars: 50 μM.
A further data set has as its system sqt and cyc transcripts. Description: Targeted injection of morpholinos into the YSL, morphology of live embryos. The format is in vivo, zebrafish. The following applies: 8 ng MO into YSL at 3 hpf. The method, then: Wild-type embryos were obtained from natural crosses of Wik fish. Collected embryos were maintained at 28.5° C. and staged according to morphological criteria (Kimmel et al., Dev. Dyn., 203:253-310 (1995). Translation blocking morpholinos against sqt and cyc have been described previously (Feldman and Stemple, Genesis, 30: 175-177 (2001); Karlen and Rebagliati, Genesis, 30: 126-128 (2001). The MO sequences are as follows: sqtMO: 5′-[…]-3′ (SEQ ID NO:1); sqtMIS: ATcTgAAAATgAAGcTAATAATgCAC-3′ (SEQ ID NO:2); cycMO: 5′-[…]-3′ (SEQ ID NO:3); cycMIS: 5′-GCcACTgCGAaGTGTGgTcAT-3′(SEQ ID NO:4). Nucleotides in lower case represent mismatches. The sqtMOs were tagged with lissamine, while the cycMOs were tagged with fluorescein. Embryos were injected with each MO at 3 hpf soon after formation of the YSL. The distribution of the MO in the YSL was verified 2 h after injection. Embryos with mislocalized MOs were removed from the experiments.
To test if sqt and cyc are required in the YSL, their function in this tissue was specifically knocked down by targeted injection of antisense morpholinos (MOs) directed against sqt and cyc transcripts. […] When cyc function alone is depleted from the YSL, all embryos have normal shields (100%, N=36) (FIG. 5E, arrow). At 24 hpf, the cyc-depleted embryos, are indistinguishable from embryos injected with control MOs (100%, N=22) (FIG. 5F). When sqt function is depleted from the YSL, by contrast, the majority of embryos lack the embryonic shield ([…], N=11) (FIG. 5G).

“Also recorded” adds a separate entry of the source. Like-named read-outs stand apart in the source and are kept apart here.

`Cc1cccc(-c2[nH]c(C(C)(C)C)nc2-c2ccc3c(c2)OCO3)n1` [SB-505124]: in the data set with Nodal receptors [1] (50 μM, added to embryos at 3 hpf or earlier), the “phenotype of treated embryos” value is “sufficient to phenocopy embryos lacking nodal-related gene function”. Further, the “phenotype of treated embryos” value in the data set with Nodal receptors [1] (later treatments, or lower doses) is “milder phenotypes”. For the same compound, in the data set on Nodal receptors [2], the “gfp expression in the EVL” value is recorded as “reduced, but not eliminated; also recorded: reduced to a greater extent”; the “gfp expression in the YSL” value is reported as “consistently reduced, but not completely eliminated; also recorded: persists”; the “gfp expression in the blastomeres” value is recorded as “eliminated; also recorded: reduced to a greater extent”; the “overall levels of gfp expression” value is recorded as “reduced”.
For the compound “cycMO: translation blocking morpholino against cyc, 5′-GCGACTCCGAGCGTGTGCATGATG-3′ (SEQ ID NO:3), tagged with fluorescein (all phosphorodiamidate morpholino (PMO); fluorescein tag, position not given here)”, the “embryos with normal shields” value in the data set on sqt and cyc transcripts (6 hpf) is recorded as 100%. Further, the “embryos indistinguishable from embryos injected with control MOs” value in the data set with sqt and cyc transcripts (24 hpf) was 100%.
With “sqtMO: translation blocking morpholino against sqt, 5′-ATGTCAAATCAAGGTAATAATCCAC-3′ (SEQ ID NO:1), tagged with lissamine (all phosphorodiamidate morpholino (PMO); lissamine tag, position not given here)”, the “embryos lacking the embryonic shield” value with sqt and cyc transcripts (6 hpf) is given as 54%. The “embryos displaying mild cyclopia” value with sqt and cyc transcripts (24 hpf) is 16%.
